Data as given in patent US7342024B2, “4-Oxo-1-3-substituted phenyl-1,4-dihydro-1,8-naphthyridine-3-carboxamide phosphodiesterase-4 inhibitors” (Merck Frost Canada Ltd., priority 2002, dated 2008).

Target: T1, human recombinant phosphodiesterase IVb (met-248) (Homo sapiens, UniProt Q07343)
T1 construct: fused on or other part: GST (glutathione transferase) fused on as a tag
Assay: SPA based PDE activity assay
Type: biochemical
Conditions: 100 nM cAMP, purified GST fusion protein of PDE IVb (met-248) from baculovirus/Sf-9
Procedure: Compounds which inhibit the hydrolysis of cAMP to AMP by the type-IV cAMP-specific phosphodiesterases were screened in a 96-well plate format as follows:
In a 96 well-plate at 30° C. was added the test compound (dissolved in 2 μL DMSO), […] of substrate buffer containing [2,8-^3H] adenosine 3′,5′-cyclic phosphate (cAMP, 110 nM to 50 μM), 10 mM MgCl2, 1 mM EDTA, 50 mM Tris, pH 7.5. The reaction was initiated by the addition of […] of human recombinant PDE4 (the amount was controlled so that ˜10% product was formed in 10 min.). The reaction was stopped after 10 min. by the addition of 1 mg of PDE-SPA beads (Amersham Pharmacia Biotech, Inc., Piscataway, N.J.). The product AMP generated was quantified on a Wallac Microbeta® 96-well plate counter (EG&G Wallac Co., Gaithersburg, Md.). The signal in the absence of enzyme was defined as the background. 100% activity was defined as the signal detected in the presence of enzyme and DMSO with the background subtracted. Percentage of inhibition was calculated accordingly. IC50 value was approximated with a non-linear regression fit using the standard 4-parameter/multiple binding sites equation from a ten point titration.
The IC50 values of the Examples disclosed here under were determined with 100 nM cAMP using the purified GST fusion protein of the human recombinant phosphodiesterase IVb (met-248) produced from a baculovirus/Sf-9 expression system.

T1 sequence (Q07343 236-736): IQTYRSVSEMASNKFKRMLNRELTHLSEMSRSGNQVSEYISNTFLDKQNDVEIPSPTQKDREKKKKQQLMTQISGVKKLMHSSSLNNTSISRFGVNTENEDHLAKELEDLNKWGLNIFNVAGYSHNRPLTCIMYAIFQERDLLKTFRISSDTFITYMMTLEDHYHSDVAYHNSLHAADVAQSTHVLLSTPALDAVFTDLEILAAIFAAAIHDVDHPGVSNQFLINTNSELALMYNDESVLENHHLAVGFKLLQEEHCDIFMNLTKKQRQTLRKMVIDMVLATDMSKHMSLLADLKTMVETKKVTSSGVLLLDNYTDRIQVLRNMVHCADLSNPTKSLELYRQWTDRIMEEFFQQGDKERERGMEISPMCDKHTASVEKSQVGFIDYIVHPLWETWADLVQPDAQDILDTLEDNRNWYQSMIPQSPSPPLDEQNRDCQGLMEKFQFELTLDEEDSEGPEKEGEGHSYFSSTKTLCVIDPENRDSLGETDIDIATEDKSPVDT

SMILES | IC50
O=C(NCC(F)(F)F)c1cn(-c2cccc(-c3ccc([C@@H]4C[C@H]4C(=O)O)cc3)c2)c2ncccc2c1=O (single isomer, unassigned; (+)) [24-(+)-isomer, (+)-(trans)-2-{3′-[4-oxo-3-{[(2,2,2-trifluoroethyl)amino]carbonyl}-1,8-naphthyridin-1(4H)-yl]biphenyl-4-yl}cyclopropanecarboxylic acid] | 0.4 nM
O=C(NCC(F)(F)F)c1cn(-c2cccc(-c3ccc(C4CC4C(=O)O)c(F)c3)c2)c2ncccc2c1=O (single isomer, unassigned; (+)) [Example 29, (+)-(trans)-2-{3-fluoro-3′-[4-oxo-3-{[(2,2,2-trifluoroethyl)amino]carbonyl}-1,8-naphthyridin-1(4H)-yl]biphenyl-4-yl}cyclopropanecarboxylic acid] | 0.3 nM
O=C(NC1CC1)c1cn(-c2cccc(-c3ccc([C@H]4C[C@H]4C(=O)O)cc3)c2)c2ncccc2c1=O (single isomer, unassigned; isomer 2) [8-(−)-isomer, 2-(cis)-{3′-[3-[(Cyclopropylamino)carbonyl]-4-oxo-1,8-naphthyridin-1(4H)-yl]-1,1′-biphenyl-4-yl}cyclopropanecarboxylic acid] | 0.7 nM
O=C(NC1CC1)c1cn(-c2cccc(-c3ccc(C4CC4C(=O)O)c(F)c3)c2)c2ncccc2c1=O (single isomer, unassigned; isomer 2) [12-(−)-isomer, 2-{3′-[3-[(Cyclopropylamino)carbonyl]-4-oxo-1,8-naphthyridin-1(4H)-yl]-3-fluoro-1,1′-biphenyl-4-yl}cyclopropanecarboxylic acid] | 0.4 nM
O=C(NC1CC1)c1cn(-c2cccc(-c3cccc(C4CC4C(=O)O)c3)c2)c2ncccc2c1=O (centres unmarked) [Example 2] | 0.2 nM
CC(C)(CC(=O)O)c1ccc(-c2cccc(-n3cc(C(=O)NC4CC4)c(=O)c4cccnc43)c2)cc1 [Example 5, 3-{3′-[3-[(Cyclopropylamino)carbonyl]4-oxo-1,8-naphthyridin-1(4H)-yl]-1,1′-biphenyl-4-yl}-3-methylbutanoic acid] | 0.6 nM
O=C(NC1CC1)c1cn(-c2cccc(-c3ccc(C4CC4C(=O)O)c(Cl)c3)c2)c2ncccc2c1=O (centres unmarked) [Example 17, 2-{3-Chloro-3′-[3-[(cyclopropylamino)carbonyl]-4-oxo-1,8-naphthyridin-1(4H)-yl]-1,1′-biphenyl-4-yl}cyclopropanecarboxylic acid] | 0.1 nM
O=C(NCC1CC1)c1cn(-c2cccc(-c3ccc(C4CC4C(=O)O)cc3)c2)c2ncccc2c1=O (centres unmarked) [Example 26, 2-{3′-[3-{[(Cyclopropylmethyl)amino]carbonyl}4-oxo-1,8-naphthyridin-1(4H)-yl]-1,1′-biphenyl-4-yl}cyclopropanecarboxylic acid] | 0.2 nM
